As a reminder, the IC50 is the concentration at which inhibition is half-maximal. In general, AUC refers to the area under the concentration-time curve, a measure of exposure. Low readings indicate low exposure, high ones high exposure.

One data set concerns the target Bile salt export pump (Homo sapiens, UniProt O95342). Kind of data set: Inhibition of human BSEP overexpressed in Sf9 cell membrane vesicles assessed as uptake of [3H]-taurocholate in presence of ATP measured after 15 to 20 mins by membrane vesicle transport assay. It is filed as ADME, cell-based.
Data set [1] deals with ATP-binding cassette sub-family C member 2 (Homo sapiens, UniProt Q92887). Kind of data set: Inhibition of human MRP2 overexpressed in Sf9 cell membrane vesicles assessed as uptake of [3H]-estradiol-17beta-D-glucuronide in presence of ATP and GSH measured after 20 mins by membrane vesicle transport assay.
In data set [2] the target is ATP-binding cassette sub-family C member 3 (Homo sapiens, UniProt O15438). The experiment in a line: Inhibition of human MRP3 overexpressed in Sf9 insect cell membrane vesicles assessed as uptake of [3H]-estradiol-17beta-D-glucuronide in presence of ATP and GSH measured after 10 mins by membrane vesicle transport assay. In kind it is ADME, cell-based.
For data set [3], the target named is T1, ATP-binding cassette sub-family C member 4 (Homo sapiens, UniProt O15439).
T1 sequence (O15439 whole entry): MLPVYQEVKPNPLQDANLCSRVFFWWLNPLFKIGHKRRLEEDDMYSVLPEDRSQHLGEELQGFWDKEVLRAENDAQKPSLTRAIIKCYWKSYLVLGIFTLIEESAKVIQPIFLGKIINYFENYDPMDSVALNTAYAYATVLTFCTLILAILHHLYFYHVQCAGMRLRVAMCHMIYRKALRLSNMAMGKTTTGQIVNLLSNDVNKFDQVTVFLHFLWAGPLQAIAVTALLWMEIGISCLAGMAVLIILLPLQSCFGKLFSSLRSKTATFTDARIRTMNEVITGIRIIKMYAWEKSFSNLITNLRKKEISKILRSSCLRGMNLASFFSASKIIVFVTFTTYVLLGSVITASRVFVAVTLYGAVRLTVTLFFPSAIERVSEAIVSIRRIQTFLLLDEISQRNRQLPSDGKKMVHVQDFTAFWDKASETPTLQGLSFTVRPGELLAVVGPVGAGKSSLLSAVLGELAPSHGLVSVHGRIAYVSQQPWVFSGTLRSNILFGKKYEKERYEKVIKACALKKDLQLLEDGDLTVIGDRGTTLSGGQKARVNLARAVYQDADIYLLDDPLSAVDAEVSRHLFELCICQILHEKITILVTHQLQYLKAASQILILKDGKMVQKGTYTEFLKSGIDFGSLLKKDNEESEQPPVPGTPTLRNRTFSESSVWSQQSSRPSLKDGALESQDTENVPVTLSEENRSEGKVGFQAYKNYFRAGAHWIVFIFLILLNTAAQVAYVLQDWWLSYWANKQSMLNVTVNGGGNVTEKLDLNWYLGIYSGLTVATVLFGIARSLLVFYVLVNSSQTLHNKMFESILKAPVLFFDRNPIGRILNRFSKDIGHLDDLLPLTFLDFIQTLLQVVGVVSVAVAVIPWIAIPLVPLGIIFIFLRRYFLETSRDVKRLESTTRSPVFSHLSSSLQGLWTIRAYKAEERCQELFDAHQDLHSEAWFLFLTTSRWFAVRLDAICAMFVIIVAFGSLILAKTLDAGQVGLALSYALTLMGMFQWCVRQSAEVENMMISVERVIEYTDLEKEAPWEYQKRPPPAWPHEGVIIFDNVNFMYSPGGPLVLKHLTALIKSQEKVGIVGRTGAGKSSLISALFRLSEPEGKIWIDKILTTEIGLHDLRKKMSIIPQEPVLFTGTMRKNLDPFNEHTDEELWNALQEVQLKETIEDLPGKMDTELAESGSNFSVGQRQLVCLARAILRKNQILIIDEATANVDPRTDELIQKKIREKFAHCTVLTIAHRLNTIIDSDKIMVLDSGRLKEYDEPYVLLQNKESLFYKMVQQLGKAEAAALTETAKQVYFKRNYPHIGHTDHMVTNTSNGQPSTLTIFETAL
The experiment in a line: Inhibition of human MRP4 overexpressed in Sf9 cell membrane vesicles assessed as uptake of [3H]-estradiol-17beta-D-glucuronide in presence of ATP and GSH measured after 20 mins by membrane vesicle transport assay. It is filed as ADME, cell-based.

A short description of data set [4]: AUC in human at 6 to 12 mg, po BID after 12 hrs. It is filed as ADME, organism-based. As to conditions: in vivo.
The nature of data set [5]: Drug concentration at steady state in human at 6 to 12 mg, po BID after 12 hrs. As to conditions: in vivo, read-out: Css. It is filed as ADME, organism-based.
A short description of data set [6]: Ratio of drug concentration at steady state in human at 6 to 12 mg, po BID after 12 hrs to IC50 for human BSEP overexpressed in Sf9 insect cells. It is filed as ADME, organism-based. The conditions noted are these: in vivo.
The nature of data set [7]: AUC in human at 10 to 80 mg, po QD after 24 hrs. In kind it is ADME, organism-based. As to conditions: in vivo.
A further data set in a line: clinical. As to conditions: human, in vivo, po.
The nature of data set [8]: AUC in human at 60 to 250 mg, po QD after 12 hrs. The conditions noted are these: in vivo. In kind it is ADME, organism-based.
Data set [9] is described as follows: Drug concentration at steady state in human at 60 to 250 mg, po QD after 12 hrs. In kind it is ADME, organism-based. As to conditions: in vivo, read-out: Css.
A short description of data set [10]: Ratio of drug concentration at steady state in human at 60 to 250 mg, po QD after 12 hrs to IC50 for human BSEP overexpressed in Sf9 insect cells. The conditions noted are these: in vivo. In kind it is ADME, organism-based.
The nature of data set [11]: AUC in human at 0.5 to 4 mg, po BID/TID/QID after 6 hrs. In kind it is ADME, organism-based. As to conditions: in vivo.
The nature of data set [12]: Drug concentration at steady state in human at 0.5 to 4 mg, po BID/TID/QID after 6 hrs. The conditions noted are these: in vivo, read-out: Css. In kind it is ADME, organism-based.
Data set [13] can be described thus: Ratio of drug concentration at steady state in human at 0.5 to 4 mg, po BID/TID/QID after 6 hrs to IC50 for human BSEP overexpressed in Sf9 insect cells. In kind it is ADME, organism-based. The conditions noted are these: in vivo.
A short description of data set [14]: Ratio of drug concentration at steady state in human at 0.5 to 4 mg, po BID/TID/QID after 6 hrs to IC50 for human MRP2 overexpressed in Sf9 insect cells. In kind it is ADME, organism-based. As to conditions: in vivo.
A short description of data set [15]: Ratio of drug concentration at steady state in human at 0.5 to 4 mg, po BID/TID/QID after 6 hrs to IC50 for human MRP3 overexpressed in Sf9 insect cells. As to conditions: in vivo. It is filed as ADME, organism-based.
A short description of data set [16]: Ratio of drug concentration at steady state in human at 0.5 to 4 mg, po BID/TID/QID after 6 hrs to IC50 for human MRP4 overexpressed in Sf9 insect cells. As to conditions: in vivo. It is filed as ADME, organism-based.
Data set [17] in a line: AUC in human at 0.075 to 0.26 mg/kg, po after 24 hrs. In kind it is ADME, organism-based. As to conditions: in vivo.
In the next data set the test system is Homo sapiens. The experiment in a line: Drug concentration at steady state in human at 0.075 to 0.26 mg/kg, po after 24 hrs. In kind it is ADME, organism-based. As to conditions: in vivo.
Data set [18] can be described thus: Ratio of drug concentration at steady state in human at 0.075 to 0.26 mg/kg, po after 24 hrs to IC50 for human BSEP overexpressed in Sf9 insect cells. In kind it is ADME, organism-based. The conditions noted are these: in vivo.
Data set [19] is described as follows: Ratio of drug concentration at steady state in human at 0.075 to 0.26 mg/kg, po after 24 hrs to IC50 for human MRP2 overexpressed in Sf9 insect cells. In kind it is ADME, organism-based. As to conditions: in vivo.

Sequence of ATP-binding cassette sub-family C member 2 (Q92887 whole entry): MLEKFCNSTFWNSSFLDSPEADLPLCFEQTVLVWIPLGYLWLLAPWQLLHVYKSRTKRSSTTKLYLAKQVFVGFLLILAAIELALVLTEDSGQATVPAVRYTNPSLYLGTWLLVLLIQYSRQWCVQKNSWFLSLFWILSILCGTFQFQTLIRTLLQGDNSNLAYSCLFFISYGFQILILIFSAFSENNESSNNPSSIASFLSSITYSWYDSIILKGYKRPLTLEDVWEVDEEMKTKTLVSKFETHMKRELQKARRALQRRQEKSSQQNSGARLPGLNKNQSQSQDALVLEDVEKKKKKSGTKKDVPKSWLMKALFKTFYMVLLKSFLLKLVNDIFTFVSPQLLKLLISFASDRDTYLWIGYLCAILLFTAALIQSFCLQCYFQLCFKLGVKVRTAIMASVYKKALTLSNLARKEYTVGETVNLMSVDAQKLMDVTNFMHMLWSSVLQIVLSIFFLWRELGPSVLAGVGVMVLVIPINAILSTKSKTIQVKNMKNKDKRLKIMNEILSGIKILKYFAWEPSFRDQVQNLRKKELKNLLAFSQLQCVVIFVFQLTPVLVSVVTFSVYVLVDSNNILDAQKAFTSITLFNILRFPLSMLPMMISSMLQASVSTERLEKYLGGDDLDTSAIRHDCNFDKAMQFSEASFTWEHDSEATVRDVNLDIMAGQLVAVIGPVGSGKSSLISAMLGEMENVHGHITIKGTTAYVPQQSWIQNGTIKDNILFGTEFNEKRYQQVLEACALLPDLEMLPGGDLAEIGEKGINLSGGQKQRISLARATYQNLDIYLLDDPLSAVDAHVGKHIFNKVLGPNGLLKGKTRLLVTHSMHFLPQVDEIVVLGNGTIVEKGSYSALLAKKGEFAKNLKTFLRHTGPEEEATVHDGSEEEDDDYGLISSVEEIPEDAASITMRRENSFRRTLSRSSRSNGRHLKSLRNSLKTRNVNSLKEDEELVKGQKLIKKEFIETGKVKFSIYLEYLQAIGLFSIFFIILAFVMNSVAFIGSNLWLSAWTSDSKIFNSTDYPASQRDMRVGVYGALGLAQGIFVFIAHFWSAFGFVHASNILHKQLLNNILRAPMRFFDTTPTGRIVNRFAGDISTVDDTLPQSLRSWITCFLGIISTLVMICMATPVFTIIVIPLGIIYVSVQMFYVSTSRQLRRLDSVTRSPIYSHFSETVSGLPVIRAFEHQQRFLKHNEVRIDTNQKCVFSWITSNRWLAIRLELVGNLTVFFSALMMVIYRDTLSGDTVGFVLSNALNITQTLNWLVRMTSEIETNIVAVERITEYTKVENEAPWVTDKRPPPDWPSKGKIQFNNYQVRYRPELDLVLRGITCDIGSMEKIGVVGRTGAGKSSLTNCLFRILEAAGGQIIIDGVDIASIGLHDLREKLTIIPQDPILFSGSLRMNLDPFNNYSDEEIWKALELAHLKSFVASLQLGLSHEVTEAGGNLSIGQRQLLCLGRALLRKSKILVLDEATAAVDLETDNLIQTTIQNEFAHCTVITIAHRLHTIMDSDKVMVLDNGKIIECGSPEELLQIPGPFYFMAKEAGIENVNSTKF
Sequence of Bile salt export pump (O95342 whole entry): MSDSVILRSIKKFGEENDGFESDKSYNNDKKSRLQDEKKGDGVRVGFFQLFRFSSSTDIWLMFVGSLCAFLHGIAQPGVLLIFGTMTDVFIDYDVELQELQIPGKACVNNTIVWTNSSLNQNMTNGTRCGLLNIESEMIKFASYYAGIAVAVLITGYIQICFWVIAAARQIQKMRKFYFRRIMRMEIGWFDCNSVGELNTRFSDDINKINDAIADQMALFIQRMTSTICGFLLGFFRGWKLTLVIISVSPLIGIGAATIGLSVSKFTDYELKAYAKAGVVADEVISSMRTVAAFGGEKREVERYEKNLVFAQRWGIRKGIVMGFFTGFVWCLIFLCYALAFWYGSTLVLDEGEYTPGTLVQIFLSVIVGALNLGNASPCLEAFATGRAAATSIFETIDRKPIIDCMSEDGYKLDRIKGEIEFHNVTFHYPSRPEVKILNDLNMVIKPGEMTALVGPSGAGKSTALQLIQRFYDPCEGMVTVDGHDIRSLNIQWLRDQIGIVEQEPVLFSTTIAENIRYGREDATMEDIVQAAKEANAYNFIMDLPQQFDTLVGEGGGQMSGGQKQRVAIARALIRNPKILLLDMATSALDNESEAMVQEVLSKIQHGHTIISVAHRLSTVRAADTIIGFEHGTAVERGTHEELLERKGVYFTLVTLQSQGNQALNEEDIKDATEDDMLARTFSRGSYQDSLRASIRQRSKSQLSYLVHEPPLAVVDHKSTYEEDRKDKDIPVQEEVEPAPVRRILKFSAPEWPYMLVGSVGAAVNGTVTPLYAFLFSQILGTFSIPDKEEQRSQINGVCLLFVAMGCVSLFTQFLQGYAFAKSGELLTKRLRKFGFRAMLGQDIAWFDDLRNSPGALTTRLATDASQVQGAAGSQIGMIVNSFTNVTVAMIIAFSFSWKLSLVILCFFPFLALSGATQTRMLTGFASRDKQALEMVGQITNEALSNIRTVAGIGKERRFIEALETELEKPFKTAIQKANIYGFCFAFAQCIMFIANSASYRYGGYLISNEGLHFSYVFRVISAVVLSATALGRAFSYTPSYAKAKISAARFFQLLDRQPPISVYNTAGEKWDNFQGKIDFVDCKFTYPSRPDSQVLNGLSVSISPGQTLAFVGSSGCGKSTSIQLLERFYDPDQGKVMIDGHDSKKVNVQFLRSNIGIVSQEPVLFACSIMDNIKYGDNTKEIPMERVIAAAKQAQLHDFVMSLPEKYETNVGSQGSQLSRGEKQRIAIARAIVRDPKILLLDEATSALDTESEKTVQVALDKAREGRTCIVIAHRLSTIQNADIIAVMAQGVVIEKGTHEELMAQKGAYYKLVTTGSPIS
Sequence of ATP-binding cassette sub-family C member 3 (O15438 whole entry): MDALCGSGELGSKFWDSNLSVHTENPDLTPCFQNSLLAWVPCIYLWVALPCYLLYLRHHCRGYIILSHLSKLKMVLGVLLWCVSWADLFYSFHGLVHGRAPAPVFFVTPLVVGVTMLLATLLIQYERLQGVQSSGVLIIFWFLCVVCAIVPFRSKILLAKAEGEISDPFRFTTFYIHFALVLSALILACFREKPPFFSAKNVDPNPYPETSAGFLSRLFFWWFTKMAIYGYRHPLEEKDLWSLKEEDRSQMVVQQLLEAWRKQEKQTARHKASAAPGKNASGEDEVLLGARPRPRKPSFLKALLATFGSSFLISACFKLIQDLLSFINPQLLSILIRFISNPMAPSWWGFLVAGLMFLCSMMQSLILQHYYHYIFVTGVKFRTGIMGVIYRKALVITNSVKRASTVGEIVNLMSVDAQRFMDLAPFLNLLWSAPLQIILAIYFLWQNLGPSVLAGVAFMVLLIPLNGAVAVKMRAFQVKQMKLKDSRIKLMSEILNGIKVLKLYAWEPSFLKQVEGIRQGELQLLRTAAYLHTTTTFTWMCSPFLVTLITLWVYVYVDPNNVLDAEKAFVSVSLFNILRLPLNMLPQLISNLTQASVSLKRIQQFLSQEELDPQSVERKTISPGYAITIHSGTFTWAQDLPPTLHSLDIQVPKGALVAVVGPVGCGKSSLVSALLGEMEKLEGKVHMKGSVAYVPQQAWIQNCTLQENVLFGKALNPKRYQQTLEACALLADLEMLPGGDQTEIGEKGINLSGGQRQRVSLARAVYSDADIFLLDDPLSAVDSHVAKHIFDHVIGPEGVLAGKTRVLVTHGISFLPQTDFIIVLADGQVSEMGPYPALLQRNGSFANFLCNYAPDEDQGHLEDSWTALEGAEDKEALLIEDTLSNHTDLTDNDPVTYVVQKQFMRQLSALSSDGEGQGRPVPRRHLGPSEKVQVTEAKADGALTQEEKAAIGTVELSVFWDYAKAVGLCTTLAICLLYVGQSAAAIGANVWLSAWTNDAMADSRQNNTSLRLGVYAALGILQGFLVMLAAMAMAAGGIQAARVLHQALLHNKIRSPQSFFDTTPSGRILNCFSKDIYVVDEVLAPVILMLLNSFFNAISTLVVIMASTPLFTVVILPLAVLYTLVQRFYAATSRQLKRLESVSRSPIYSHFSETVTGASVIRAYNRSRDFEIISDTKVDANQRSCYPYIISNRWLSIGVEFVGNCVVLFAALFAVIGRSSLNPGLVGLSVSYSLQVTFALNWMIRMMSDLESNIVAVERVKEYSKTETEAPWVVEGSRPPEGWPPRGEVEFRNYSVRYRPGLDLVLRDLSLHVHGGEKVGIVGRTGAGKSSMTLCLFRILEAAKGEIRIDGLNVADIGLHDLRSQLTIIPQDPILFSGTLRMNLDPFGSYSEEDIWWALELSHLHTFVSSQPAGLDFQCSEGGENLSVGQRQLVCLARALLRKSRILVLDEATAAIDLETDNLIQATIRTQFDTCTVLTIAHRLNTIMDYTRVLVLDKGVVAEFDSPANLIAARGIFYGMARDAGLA
Description for clinical: Drug concentration at steady state in human at 10 to 80 mg, po QD after 24 hrs

Turning to `COc1cc(C(C)=O)ccc1OCCCN1CCC(c2noc3cc(F)ccc23)CC1` [ILOPERIDONE], the IC50 at Bile salt export pump is 23.4 µM; in data set [1], over 133 µM; in data set [2], over 133 µM; in data set [3], over 133 µM. The molecule also yielded an AUC at 12 h in data set [4] of 0.106 µM·h. The concentration at 12 h in [5] is 9 nM. In addition, the Ratio in data set [6] was 0.00038.
Take `CC[C@H](C)C(=O)O[C@H]1C[C@@H](C)C=C2C=C[C@H](C)[C@H](CC[C@@H]3C[C@@H](O)CC(=O)O3)[C@H]21` [LOVASTATIN]: the 50% inhibitory concentration (IC50) on Bile salt export pump is 19.3 µM; in [1], over 133 µM; in data set [2] it was over 133 µM; in [3], over 133 µM. Further, the AUC at 24 h in data set [7] turned out to be 0.238 µM·h. This molecule yielded a concentration at 24 h in the data set “clinical” of 10 nM.
In the case of `CN1CCN(C2=Nc3ccccc3Oc3ccc(Cl)cc32)CC1.O=C(O)CCC(=O)O` [LOXAPINE SUCCINATE], the half-maximal inhibitory concentration (IC50) on Bile salt export pump was 77 µM; in [1], over 133 µM; in data set [2], over 133 µM; in [3], over 133 µM. This molecule showed an AUC at 12 h in data set [8] of 0.369 µM·h. In addition, the concentration at 12 h in data set [9] is 31 nM. In addition, the Ratio in [10] stood at 0.0004.
With `CCOc1cc(CC(=O)N[C@@H](CC(C)C)c2ccccc2N2CCCCC2)ccc1C(=O)O` [REPAGLINIDE], the IC50 at Bile salt export pump amounted to 22 µM; in [1], 72.3 µM; in [2], 16.7 µM; in [3], 53.9 µM. In [11], this molecule gave an area under the curve (AUC) at 6 h of 0.099 µM·h. Further, the concentration at 6 h in data set [12] came to 16 nM. In addition, the Ratio in [13] stood at 0.00075; in [14], 0; in [15] it was 0.001; in data set [16], 0.
For the molecule `C=CC[C@@H]1/C=C(\C)C[C@H](C)C[C@H](OC)[C@H]2O[C@@](O)(C(=O)C(=O)N3CCCC[C@H]3C(=O)O[C@H](/C(C)=C/[C@@H]3CC[C@@H](O)[C@H](OC)C3)[C@H](C)[C@@H](O)CC1=O)[C@H](C)C[C@@H]2OC` [TACROLIMUS ANHYDROUS], the IC50 was 7.18 µM on Bile salt export pump, 40.3 µM in data set [1], over 133 µM in [2] and over 133 µM in data set [3]. In addition, the AUC at 24 h in data set [17] stood at 0.252 µM·h. This molecule had a Css with Homo sapiens of 11 nM. Moreover, the Ratio is recorded as 0.001 in data set [18] and 0 in data set [19].

Source of the values: ChEMBL document CHEMBL4028801, “A multifactorial approach to hepatobiliary transporter assessment enables improved therapeutic compound development” (Toxicol Sci, 2013).
